According to US10865451B2, “Non-invasive blood based monitoring of genomic alterations in cancer” (Dana-Farber Cancer Institute, Inc., priority 2013, dated 2020):

Test system: advanced EGFR-mutant NSCLC
Test: Serial ddPCR plasma genotyping of patients on first-line erlotinib (NCT00997334) until RECIST progression
Type: in vivo, human
Protocol: For each eligible patient, plasma was collected during routine care either prior to first-line therapy or at a subsequent time when the cancer was progressing on therapy. Additional follow-up specimens were collected if possible during routine care. Each specimen was collected into one 10 mL EDTA-containing vacutainer and was spun into plasma within 4 hours of collection. Plasma cfDNA was extracted and frozen at −80 C until genotyping. Total DNA concentration in extracted plasma was measured via a modified quantitative PCR assay for human long interspersed element 1 (LINE-1).
Each droplet is individually assigned a positive or negative value based on the fluorescent intensity. The amount of positives and negatives are read by a flow cytometer and are used to calculate the concentration of an allele. To minimize bias and to ensure the integrity of results, the laboratory was blinded to the tumor genotype when testing plasma specimens, but results were selectively unblinded for data analysis. Each plasma sample was analyzed in triplicate with an increasing quantity of input DNA (e.g. 1 μL, 2 μL, and 4 μL). Results were normalized to a mean concentration of mutant alleles per μL DNA input, and reported as copies of mutant allele per 100 μL of DNA, the approximate DNA quantity isolated from one blood specimen.

**Q.** With `C#Cc1cccc(Nc2ncnc3cc(OCCOC)c(OCCOC)cc23)c1` [erlotinib] as the compound, how does the “patients exhibiting a plasma response (drop of plasma level of EGFR sensitizing mutation)” value (9 analysed patients with EGFR exon 19 deletion and detectable pretreatment plasma genotype) read?
**A.** 9 patients

**Q.** And the “patients demonstrating a complete plasma response” value (of 9 analysed patients)?
**A.** 8 patients

**Q.** What about the “patients with plasma levels of mutant EGFR again detected at objective progression (plasma T790M also identified)” value (of 9 analysed patients, at RECIST progression) of the same compound?
**A.** 6 patients
